Consider 34 compounds from patent US9469615B2, “Quinoxalines and AZA-quinoxalines as CRTH2 receptor modulators” (Merck Sharp & Dohme Corp., priority 2010, dated 2016).

The target in the assay is T1, hCRTH2 (Homo sapiens, UniProt Q9Y5Y4).
T1 construct: expressed in transfected cells; host or cells: HEK (human embryonic kidney) cells expressing hCRTH2; membrane preparation
T1 sequence (Q9Y5Y4 1-395): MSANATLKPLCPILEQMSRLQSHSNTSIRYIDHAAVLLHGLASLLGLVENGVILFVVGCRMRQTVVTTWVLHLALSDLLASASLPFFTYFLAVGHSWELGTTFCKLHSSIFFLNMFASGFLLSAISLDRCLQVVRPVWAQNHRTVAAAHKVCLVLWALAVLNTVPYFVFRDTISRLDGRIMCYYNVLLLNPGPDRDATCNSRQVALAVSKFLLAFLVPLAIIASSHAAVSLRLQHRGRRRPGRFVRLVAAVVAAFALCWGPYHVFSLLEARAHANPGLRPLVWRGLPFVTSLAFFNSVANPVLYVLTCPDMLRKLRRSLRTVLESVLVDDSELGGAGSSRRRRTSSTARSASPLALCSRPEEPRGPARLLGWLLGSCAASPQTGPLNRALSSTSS
Put plainly: Radioligand binding assay ([3H]PGD2 competition, HEK-hCRTH2 membranes). As to conditions: [3H]PGD2 binding. The essentials: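 Competition against 3.0 nM [3H]PGD2 was run for 60 min at room temperature in pH 7.4 Tris-HCl buffer with EDTA, 2 mM MnCl2 and 1% DMSO, using 8-20 μg HEK-hCRTH2 membrane protein. 10 μM PGD2 set non-specific binding; filter-bound counts were read by scintillation.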

One may read the Ki as the dissociation constant of the complex between target and ligand, obtained from inhibition or displacement. A higher Ki goes with a looser hold on the target. For the compound `O=C(O)CCCCc1nc2ccc(C(=O)NCc3cccc(Cl)c3)cc2nc1-c1ccccc1` [compound 8], under “rated A-E (Table A)”, the Ki lay within 20.1 to 200 nM.

As to `COC(=O)c1ccc2nc(-c3ccccc3)c(OCCCC(=O)O)nc2c1` [compound 9, 4-{[7-(Methoxycarbonyl)-3-phenylquinoxalin-2-yl]oxy}butanoic Acid], under “rated A-E (Table A)”, the Ki lay in the range of 2.1 to 20 nM.

`O=C(O)CCCOc1nc2cc(C(=O)NCc3cccnc3)ccc2nc1-c1ccccc1` [compound 10, 4-({3-Phenyl-7-[(pyridin-3-ylmethyl)carbamoyl]quinoxalin-2-yl}oxy)butanoic Acid] came in with a Ki (rated A-E (Table A)) of 2.1 to 20 nM.

Take `O=C(O)CCCCc1nc2cc(NC(=O)Cc3ccc(Cl)c(Cl)c3)ccc2nc1-c1ccccc1` [compound 11]: under “rated A-E (Table A)”, the Ki lay in the range of 20.1 to 200 nM.

Where the note is “rated A-E (Table A)”, `O=C(O)CCCCc1nc2cc(NS(=O)(=O)Cc3ccccc3)ccc2nc1-c1ccccc1` [compound 12, 5-{7-[(benzylsulfonyl)amino]-3-phenylquinoxalin-2-yl}pentanoic Acid] showed an inhibition constant (Ki) of 201 to 700 nM.

`COC(=O)c1cnc2nc(-c3ccccc3)c(CCCCC(=O)O)nc2c1` [compound 13, 5-[7-(Methoxycarbonyl)-3-phenylpyrido[2,3-b]pyrazin-2-yl]pentanoic Acid] had an inhibition constant Ki (rated A-E (Table A)) of 20.1 to 200 nM.

`O=C(O)CCCCc1nc2cc(C(=O)NCc3ccc(C(F)(F)F)cc3)cnc2nc1-c1ccccc1` [compound 14]: the Ki (rated A-E (Table A)) was in the range of 2.1 to 20 nM.

Compound `O=C(O)CCCCc1nc2cc(C(=O)NCc3ccc(Cl)cc3)ccc2nc1-c1ccc(Cl)cc1` [compound 16] yielded an inhibition constant Ki (rated A-E (Table A)) of 0.1 to 2 nM.

The compound `CC(CCc1nc2cc(C(=O)N3CCC(c4ccccc4)CC3)ccc2nc1-c1ccc(Cl)cc1)CC(=O)O` (stereo not drawn) [compound 17, 3-(4-chlorophenyl)-beta-methyl-7-[(4-phenyl-1-piperidinyl)carbonyl]-2-quinoxalinepentanoic acid] yielded a Ki (rated A-E (Table A)) of 2.1 to 20 nM.

For the setting “rated A-E (Table A)”, `CC(CCCc1nc2cc(C(=O)N3CCC(c4ccccc4)CC3)ccc2nc1-c1ccc(C(F)(F)F)cc1)C(=O)O` (stereo not drawn) [compound 18, alpha-methyl-7-[(4-phenyl-1-piperidinyl)carbonyl]-3-[4-(trifluoromethyl)phenyl]-2-quinoxalinepentanoic acid] gave an inhibition constant Ki of 2.1 to 20 nM.

In turn, `O=C(O)Cc1cccc(CCc2nc3cc(C(=O)N4CCC(c5ccccc5)CC4)ccc3nc2-c2ccc(Cl)cc2)c1` [compound 19, 2-(3-(2-(3-(4-chlorophenyl)-7-(4-phenylpiperidine-1-carbonyl)quinoxalin-2-yl)ethyl)phenyl)acetic acid] came in with a Ki (rated A-E (Table A)) of 2.1 to 20 nM.

For the compound `C[C@H](c1ccccc1)N(C)C(=O)c1ccc2nc(-c3ccc(F)cc3)c(CCCCC(=O)O)nc2c1` [compound 21, (R)-5-(3-(4-fluorophenyl)-7-(methyl(1-phenylethyl)carbamoyl)quinoxalin-2-yl)pentanoic acid], the Ki (rated A-E (Table A)) was in the range of 0.1 to 2 nM.

On to `O=C(NCc1cccc(Cl)c1)c1ccc2nc(-c3ccccc3)c(CCCc3nnn[nH]3)nc2c1` [compound 22], for which the inhibitory constant (Ki) (rated A-E (Table A)) lay within 20.1 to 200 nM.

The compound `O=C(O)CCCc1nc2cc(C(=O)NCc3cccc(Cl)c3)ccc2nc1-c1ccccc1` [compound 23, 7-[[[(3-chlorophenyl)methyl]amino]carbonyl]-3-phenyl-2-quinoxalinebutanoic acid] registered an inhibition constant Ki (rated A-E (Table A)) of 20.1 to 200 nM.

The compound `O=C(O)CCCCc1nc2cc(C(=O)N3CC[C@@H](c4ccccc4)C3)c(F)cc2nc1-c1ccc(Cl)cc1` [compound 24, 3-(4-chlorophenyl)-6-fluoro-7-[(3(S)-phenyl-1-pyrrolidinyl)carbonyl]-2-quinoxalinepentanoic acid] yielded a Ki (rated A-E (Table A)) of 2.1 to 20 nM.

Regarding `O=C(O)CCCCc1nc2cc(S(=O)(=O)N3CCC(c4ccccc4)CC3)ccc2nc1-c1ccc(Cl)cc1` [compound 25, 5-(3-(4-chlorophenyl)-7-(4-phenylpiperidin-1-ylsulfonyl)quinoxalin-2-yl)pentanoic acid], the Ki (rated A-E (Table A)) lay in the range of 201 to 700 nM.

Where the note is “rated A-E (Table A)”, `O=C(O)CCCCc1nc2cc(C(=O)N3CCC(c4ccccc4)C3)ccc2nc1-c1ccc(C(F)(F)F)cc1` (stereo not shown) [compound 26, 5-(7-(3-Phenylpyrrolidine-1-carbonyl)-3-(4-(trifluoromethyl)phenyl)-quinoxalin-2-yl)pentanoic acid] yielded a Ki of 0.1 to 2 nM.

In turn, `O=C(O)CCOCc1nc2cc(C(=O)N3CCC(c4ccccc4)CC3)ccc2nc1-c1ccc(Cl)cc1` [compound 29, 3-((3-(4-chlorophenyl)-7-(4-phenylpiperidine-1-carbonyl)quinoxalin-2-yl)methoxy)propanoic acid] had a Ki (rated A-E (Table A)) of 2.1 to 20 nM.

Consider `O=C(O)C1CC(Cc2nc3cc(C(=O)N4CCC(c5ccccc5)CC4)ccc3nc2-c2ccc(Cl)cc2)C1` (stereo not shown) [compound 30, 3-((3-(4-chlorophenyl)-7-(4-phenylpiperidine-1-carbonyl)quinoxalin-2-yl)methyl)cyclobutanecarboxylic acid], for which, under “rated A-E (Table A)”, the Ki fell in the range of 2.1 to 20 nM.

On to `O=C(O)CCCCc1nc2cc(C(=O)N3CC(c4nc5ccccc5[nH]4)C3)ccc2nc1-c1ccc(F)cc1` [compound 31, 5-(7-(3-(1H-benzo[d]imidazol-2-yl)azetidine-1-carbonyl)-3-(4-fluorophenyl)quinoxalin-2-yl)pentanoic acid], for which the Ki (rated A-E (Table A)) was 2.1 to 20 nM.

Regarding `O=C(O)Cc1cccc(CCCc2nc3cc(C(=O)N4CCC(c5ccccc5)CC4)ccc3nc2-c2ccc(Cl)cc2)c1` [compound 32, 2-(3-(3-(3-(4-chlorophenyl)-7-(4-phenylpiperidine-1-carbonyl)quinoxalin-2-yl)propyl)phenyl)acetic acid], the Ki (rated A-E (Table A)) was in the range of 2.1 to 20 nM.

As to `O=C(O)CCCC(O)c1nc2cc(C(=O)N[C@@H]3CCCc4ccccc43)ccc2nc1-c1ccc(Cl)cc1` (stereo partly drawn) [compound 33, 5-(3-(4-chlorophenyl)-7-(((R)-1,2,3,4-tetrahydronaphthalen-1-yl)carbamoyl)quinoxalin-2-yl)-5-hydroxypentanoic acid], the Ki (rated A-E (Table A)) lay within 20.1 to 200 nM.

Compound `O=C(O)CCCC(=O)c1nc2cc(C(=O)N[C@@H]3CCCc4ccccc43)ccc2nc1-c1ccc(Cl)cc1` [compound 34, (R)-5-(3-(4-chlorophenyl)-7-((1,2,3,4-tetrahydronaphthalen-1-yl)carbamoyl)quinoxalin-2-yl)-5-oxopentanoic acid] yielded a Ki (rated A-E (Table A)) of 201 to 700 nM.

For the setting “rated A-E (Table A)”, `O=C(O)CCCC(F)c1nc2cc(C(=O)N[C@@H]3CCCc4ccccc43)ccc2nc1-c1ccc(Cl)cc1` (stereo partly drawn) [compound 35, 5-(3-(4-chlorophenyl)-7-(((R)-1,2,3,4-tetrahydronaphthalen-1-yl)carbamoyl)quinoxalin-2-yl)-5-fluoropentanoic acid] gave a Ki of 20.1 to 200 nM.

For the compound `C[C@@H](NC(=O)c1ccc2nc(-c3ccccc3)c(CCCC(=O)O)nc2c1)c1ccc(F)cc1` [compound 36, (R)-4-(7-((1-(4-fluorophenyl)ethyl)carbamoyl)-3-phenylquinoxalin-2-yl)butanoic acid], the inhibitory constant (Ki) was 701 to 2300 nM (rated A-E (Table A)) and 716 nM (values in text).

Take `C[C@@H](NC(=O)c1ccc2nc(-c3ccccc3)c(CCCC(F)(F)C(=O)O)nc2c1)c1ccc(F)cc1` [compound 37, (R)-2,2-difluoro-5-(7-((1-(4-fluorophenyl)ethyl)carbamoyl)-3-phenylquinoxalin-2-yl)pentanoic acid]: the Ki (rated A-E (Table A)) was 20.1 to 200 nM.

As for `C[C@@H]1CN(c2ccc(F)cc2)CCN1C(=O)c1ccc2nc(-c3ccccc3)c(CCCCC(=O)O)nc2c1` [compound 39, (R)-5-(7-(4-(4-fluorophenyl)-2-methylpiperazine-1-carbonyl)-3-phenylquinoxalin-2-yl)pentanoic acid], the Ki is 2.1 to 20 nM (rated A-E (Table A)) and 8 nM (values in text).

For `O=C(O)CCCCc1nc2cc(C(=O)N[C@@H]3CCCc4cc(F)ccc43)ccc2nc1-c1ccccc1` [compound 40, (R)-5-(7-((6-fluoro-1,2,3,4-tetrahydronaphthalen-1-yl)carbamoyl)-3-phenylquinoxalin-2-yl)pentanoic acid], the Ki (rated A-E (Table A)) was 2.1 to 20 nM.

On to `C[C@@H]1CN(c2ccccc2)CCN1C(=O)c1ccc2nc(-c3ccccc3)c(CCCCC(=O)O)nc2c1` [compound 41, (R)-5-(7-(2-methyl-4-phenylpiperazine-1-carbonyl)-3-phenylquinoxalin-2-yl)pentanoic acid], for which the Ki is 2.1 to 20 nM (rated A-E (Table A)) and 8.8 nM (values in text).

With `O=C(O)Cc1cc(F)cc(CCc2nc3cc(C(=O)N4CCC(c5ccccc5)CC4)ccc3nc2-c2ccc(Cl)cc2)c1` [compound 42, 2-(3-(2-(3-(4-chlorophenyl)-7-(4-phenylpiperidine-1-carbonyl)quinoxalin-2-yl)ethyl)-5-fluorophenyl)acetic acid], the inhibitory constant (Ki) (rated A-E (Table A)) lay in the range of 2.1 to 20 nM.

In the case of `C[C@@H]1CN(c2ccc(F)cc2)CCN1C(=O)c1ccc2nc(-c3ccccc3)c(NCCCC(=O)O)nc2c1` [compound 44, (R)-4-((7-(4-(4-fluorophenyl)-2-methylpiperazine-1-carbonyl)-3-phenylquinoxalin-2-yl)amino)butanoic acid], the Ki (rated A-E (Table A)) fell in the range of 2.1 to 20 nM.

`O=C(O)CCCCc1nc2cc(C(=O)NCc3ccc(Cl)cc3)ccc2nc1-c1ccc(F)cc1` [compound 100] yielded an inhibition constant Ki (rated A-E (Table A)) of 0.1 to 2 nM.

Regarding `O=C(O)CCCCc1nc2cc(C(=O)NCc3cccc(Cl)c3)ccc2nc1-c1ccc(F)cc1` [compound 101, 7-[[[(3-chlorophenyl)methyl]amino]carbonyl]-3-(4-fluorophenyl)-2-quinoxalinepentanoic acid], under “rated A-E (Table A)”, the Ki lay in the range of 2.1 to 20 nM.

In the case of `O=C(O)CCCCc1nc2cc(C(=O)N[C@@H](c3ccccc3)C(F)(F)F)ccc2nc1-c1ccc(F)cc1` [compound 102, 3-(4-fluorophenyl)-7-[[(2,2,2-trifluoro-1(S)-phenylethyl)amino]carbonyl]-2-quinoxalinepentanoic acid], the inhibition constant (Ki) (rated A-E (Table A)) was in the range of 2.1 to 20 nM.
